As usually defined, the EC50 is the midpoint of the concentration-response curve. Usually Kd stands for the constant that tells how readily two partners part at equilibrium. Higher therefore signals a looser complex.

Four molecules from US10975114B2, “Bis 2′-5′-RR-(3′F-A)(3′F-A) cyclic dinucleotide compound and uses thereof” (ADURO BIOTECH, INC., priority 2017, dated 2021) can be followed below.

Experiment [1] concerns THP1 cells (hSTING HAQ allele). The experiment in a line: THP1-Dual IRF-3 luciferase reporter assay without digitonin. It counts as cell-based, human. The conditions noted are these: 30 min compound incubation, overnight readout of secreted luciferase. Here is the method:
Cells were washed with fresh media and incubated for 30 min at 37° C. with 5% CO2 with compounds in 3-fold titration steps from 2,000 to 0.0338 μM in PB buffer (50 mM 4-(2-hydroxyethyl)-1-piperazineethanesulfonic acid, 100 mM KCl, 3 mM MgCl2, 0.1 mM dithiothreitol, 85 mM sucrose, 1 mM ATP, 0.1 mM GTP and 0.2% bovine serum albumin). After 30 minutes, cells were washed and fresh RPMI media containing 10% FBS was added, and cells were incubated at 37° C. with 5% CO2. Cell culture supernatants from each sample were collected after overnight incubation, and 10 μl of the cell culture supernatants was added to 50 μl QUANTI-Luc reagent (Invivogen). Type I interferon activation was determined by measuring secreted luciferase levels on a SpectraMax M3 spectrophotometer (Molecular Devices). The EC50 value for the same compounds as tested in Example 4 was determined from the dose-response curve for the 10 concentrations from the serial dilution of the compounds in this assay.
(In a reporter assay the amount or activity of a reporter protein is the signal.)

Another experiment addresses T1, wild type hSTING (Homo sapiens, UniProt Q86WV6, H232R).
T1 construct: 6xHis-SUMO (with TEV site) (N, cleaved yes); made in house; host or cells: Rosetta2 (DE3) E. coli
The experiment in a line: DSF Tm shift, purified hSTING WT (AA140-379). It is filed as binding. The conditions noted are these: 1 mg/ml STING AA140-379, ligand 1 mM. Here is the method:
(§1) Cells were grown in lysogeny broth at 37° C. until a […] absorbance of 0.6 was reached. […] Cells were lysed using an S-450D sonifier (Emmerson industrial) on ice. […] Protein was aliquoted, flash frozen in liquid nitrogen and stored at −80° C. until use.
(§2) The protein is heated in the presence of a dye that binds to and fluoresces in hydrophobic environments. The protein is thermally denatured by heating resulting in increased dye binding to the unfolded protein and fluorescence. The temperature midpoint (Tm) of a proteins denaturation is established by calculating the half maximal value of the denaturation curve. The temperature midpoint of the protein in the presence of a ligand is directly related to the affinity of the ligand for the protein and therefore its ability to stabilize the protein at higher temperatures.

A further experiment addresses T2, HAQ allele hSTING (Homo sapiens, UniProt Q86WV6, G230A/H232R/R293Q).
T2 construct: 6xHis-SUMO (with TEV site) (N, cleaved yes); made in house; host or cells: Rosetta2 (DE3) E. coli
The experiment in a line: DSF Tm shift, purified hSTING HAQ allele (AA140-379). The conditions noted are these: 1 mg/ml STING AA140-379, ligand 1 mM. It is filed as binding. How it is done: as §1, §2

In a further experiment the target is T3, REF allele hSTING (Homo sapiens, UniProt Q86WV6).
T3 construct: 6xHis-SUMO (with TEV site) (N, cleaved yes); made in house; host or cells: Rosetta2 (DE3) E. coli
The experiment in a line: DSF Tm shift, purified hSTING REF allele (AA140-379). It is filed as binding. As to conditions: 1 mg/ml STING AA140-379, ligand 1 mM. How it is done: as §1, §2

The target in a further experiment is T4, hSTING WT (Homo sapiens, UniProt Q86WV6, H232R).
T4 construct: made in house; host or cells: BL21 Rosetta 2 (DE3) E. coli
The experiment in a line: ITC binding assay, hSTING WT. The conditions noted are these: 25° C., protein 0.1 mM, ligand 0.35 mM. How it is done: (§3) The WT and REF proteins were similarly prepared for use in an ITC binding assay. Expression plasmids were transformed into BL21 Rosetta 2 (DE3) (EMD Millipore) E. coli cells for protein expression. 50 ml starter cultures were grown overnight in 2×YT supplemented with 50 μg/ml kanamycin and 30 μg/ml chloramphenicol. Multi-liter large scale cultures of the same growth media as the starter were inoculated at a ratio of 1:1,000 (V/V) and allowed to grow at 37° C. to an optical density of 0.6, cultures were then shifted to 18° C. Protein expression was induced by the addition of isopropyl β-D-1-thiogalactopyranoside to a final concentration of 0.3 mM. Protein expression was allowed to proceed for 18-24 hrs. Pelleted cells were resuspended in 50 mM Tris pH 7.5, 500 mM NaCl, 10% glycerol, 20 mM imidazole, 1 mM TCEP and complete protease inhibitor cocktail (Sigma). Cells were lysed by sonication (Branson) and insoluble material was removed by centrifugation. Proteins were purified on Ni-NTA resin and concentrated to >10 mg/ml. 6×H-SUMO-STING LBD was further purified by gel filtration chromatography using a High Load 26/600 Superdex 75 column (GE Healthcare) in a buffer of 20 mM Tris pH 7.5, 150 mM NaCl, 5% glycerol and 1 mM TCEP. Peak fractions were concentrated to between 10-15 mg/ml via ultrafiltration aliquoted and flash frozen in liquid nitrogen and stored at […]
The resulting amino acid sequence for the STING WT allele is as follows: • Allele Name: WT • Amino Acid Sequence:
(§4) Proteins were dialyzed overnight in 20 mM HEPES pH 7.5, 150 mM NaCl. Insoluble material was removed by centrifugation at 31,000×g. The invention compound 2′2′-RR-(3′F-A)(3′F-A) and comparison STING agonists 3′3′-RR-(2′F-A)(2′F-A); 2′3′-RR-(3′F-A)(2′F-A) were resuspended in dialysis buffer. The concentration of both the protein and ligands were checked by spectroscopy and adjusted if necessary.
(§5) STING protein was added to the ITC sample cell at a final concentration of 0.1 mM. The CDN ligand was at a final concentration of 0.35 mM in the syringe. […]

For a further experiment, the target named is T5, hSTING REF allele (Homo sapiens, UniProt Q86WV6).
T5 construct: made in house; host or cells: BL21 Rosetta 2 (DE3) E. coli
The experiment in a line: ITC binding assay, hSTING REF allele. The conditions noted are these: 25° C., protein 0.1 mM, ligand 0.35 mM. How it is done: as §3
The resulting amino acid sequences for the STING REF allele is as follows: • Allele Name: REF • Amino Acid Sequence:
as §4, §5

Some results are limits rather than exact numbers.

Turning to `Nc1ncnc2c1ncn2[C@@H]1O[C@@H]2CO[P@@](=O)(S)O[C@@H]3[C@H](O)[C@@H](CO[P@@](=O)(S)O[C@@H]1[C@@H]2O)O[C@H]3n1cnc2c(N)ncnc21` [2′2′-RR-(A)(A), (1R,3R,6R,8R,9R,11R,14R,16R,17R,18R)-8,16-bis(6-amino-9H-purin-9-yl)-17,18-dihydroxy-3,11-dimercapto-2,4,7,10,12,15-hexaoxa-3,11-diphosphatricyclo[12.2.1.1^6,9]octadecane 3,11-dioxide], the EC50 in experiment [1] (Homo sapiens, THP-1, 0.5 h) was > 150000 nM. In addition, the “hSTING Tm Shift WT” value on wild type hSTING came out at 3.4 °C. In addition, the “hSTING Tm Shift HAQ” value on HAQ allele hSTING stood at 5.1 °C. The “hSTING Tm Shift REF” value at REF allele hSTING was determined as 3.6 °C.
As for `Nc1nc2c(ncn2[C@@H]2O[C@@H]3COP(=O)(O)O[C@H]4[C@@H](O)[C@H](n5cnc6c(N)ncnc65)O[C@@H]4COP(=O)(O)O[C@@H]2[C@@H]3O)c(=O)[nH]1` [2′3′-(G)(A)], the EC50 in experiment [1] was > 150000 nM.
In experiment [1] (Homo sapiens, THP-1, 0.5 h), `Nc1ncnc2c1ncn2[C@@H]1O[C@@H]2CO[P@@](=O)(S)O[C@@H]3[C@H](F)[C@@H](OC[P@@](=O)(S)O[C@H]2[C@H]1F)O[C@H]3n1cnc2c(N)ncnc21` [2′3′-RR-(3′F-A)(2′F-A), dithio-[Rp,Rp]-cyclic-[3′F-A(2′,5′)p-2′F-A(3′,5′)p]] had an EC50 of 4500 nM. Besides, on wild type hSTING, the “hSTING Tm Shift WT” value is 14.5 °C. Also, the Kd on hSTING WT is 109 nM; on hSTING REF allele, 333 nM. Moreover, on HAQ allele hSTING, the “hSTING Tm Shift HAQ” value was found to be 26 °C. Further, the “hSTING Tm Shift REF” value at REF allele hSTING turned out to be 10.5 °C.
Molecule `Nc1ncnc2c1ncn2[C@@H]1O[C@@H]2CO[P@@](=O)(S)O[C@H]3[C@@H](F)[C@H](n4cnc5c(N)ncnc54)O[C@@H]3CO[P@@](=O)(S)O[C@H]2[C@H]1F` [3′3′-RR-(2′F-A)(2′F-A), (2R,3R,3aR,5R,7aR,9R,10R,10aR,12R,14aR)-2,9-bis(6-amino-9H-purin-9-yl)-3,10-difluoro-5,12-dimercaptooctahydro-2H,7H-difuro[3,2-d:3′,2′-j][1,3,7,9]tetraoxa[2,8]diphosphacyclododecine 5,12-dioxide] registered an EC50 in experiment [1] (Homo sapiens, THP-1, 0.5 h) of 15600 nM. Moreover, the Kd on hSTING WT came to 74 nM; on hSTING REF allele, 591 nM.
